For 6 compounds, IC50 and Activity results are on record in ChEMBL document CHEMBL5346973 (J Med Chem, 2023).

Assay type in all cases: cell-based
The target of experiment [1] is Nicotinic acetylcholine receptor alpha9/alpha10 (Rattus norvegicus, UniProt P43144+Q9JLB5). The experiment can be described thus: Antagonist activity at rat alpha9alpha10 nACh receptor expressed in Xenopus oocyte assessed as inhibition of acetylcholine-induced response at -70 mV holding potential by voltage-clamp based electrophysiological assay.
In experiment [2] the target is Neuronal acetylcholine receptor subunit alpha-7 (Rattus norvegicus, UniProt Q05941). In words: Antagonist activity at rat alpha7 nACh receptor expressed in Xenopus oocyte assessed as inhibition of acetylcholine-induced response at -70 mV holding potential by voltage-clamp based electrophysiological assay.
For experiment [3], the target named is Nicotinic acetylcholine receptor alpha9/alpha10 (Rattus norvegicus) (UniProt P43144+Q9JLB5). In words: Antagonist activity at rat alpha9alpha10 nACh receptor expressed in Xenopus oocyte assessed as inhibition of acetylcholine-induced response at -70 mV holding potential at 10 uM measured after 5 mins by voltage-clamp based electrophysiological assay.

For orientation: IC50 means the point on the concentration scale where inhibition reaches its midpoint.

Active and inactive are the calls of the source. The rule behind the calls is not given here. Where a SMILES comes first, the peptide text is derived from it.

Nicotinic acetylcholine receptor alpha9/alpha10, sequence (P43144 whole entry): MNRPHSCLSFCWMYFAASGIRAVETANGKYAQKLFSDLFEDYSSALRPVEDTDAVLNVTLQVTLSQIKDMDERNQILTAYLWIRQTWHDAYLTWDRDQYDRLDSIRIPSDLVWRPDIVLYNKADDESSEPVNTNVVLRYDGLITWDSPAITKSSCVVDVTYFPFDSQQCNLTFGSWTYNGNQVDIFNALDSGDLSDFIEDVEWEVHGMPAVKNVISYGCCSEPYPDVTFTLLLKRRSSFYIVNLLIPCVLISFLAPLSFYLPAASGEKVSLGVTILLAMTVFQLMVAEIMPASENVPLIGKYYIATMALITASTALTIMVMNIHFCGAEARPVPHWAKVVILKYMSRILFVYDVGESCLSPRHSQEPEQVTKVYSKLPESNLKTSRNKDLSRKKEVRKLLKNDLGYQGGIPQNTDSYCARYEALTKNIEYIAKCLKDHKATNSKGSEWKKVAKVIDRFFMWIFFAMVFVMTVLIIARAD
Nicotinic acetylcholine receptor alpha9/alpha10, sequence (Q9JLB5 whole entry): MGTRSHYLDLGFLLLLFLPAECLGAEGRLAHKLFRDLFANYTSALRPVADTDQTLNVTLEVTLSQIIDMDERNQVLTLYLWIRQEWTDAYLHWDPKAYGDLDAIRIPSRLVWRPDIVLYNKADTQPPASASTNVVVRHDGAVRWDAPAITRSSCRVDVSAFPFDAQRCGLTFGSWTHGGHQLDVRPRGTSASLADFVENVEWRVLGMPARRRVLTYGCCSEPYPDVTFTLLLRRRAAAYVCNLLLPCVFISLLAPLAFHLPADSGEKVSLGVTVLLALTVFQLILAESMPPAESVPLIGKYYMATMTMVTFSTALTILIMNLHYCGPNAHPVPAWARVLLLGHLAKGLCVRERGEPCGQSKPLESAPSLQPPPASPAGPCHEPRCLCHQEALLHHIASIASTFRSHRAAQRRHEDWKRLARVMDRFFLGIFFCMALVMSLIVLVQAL
Neuronal acetylcholine receptor subunit alpha-7, sequence (Q05941 whole entry): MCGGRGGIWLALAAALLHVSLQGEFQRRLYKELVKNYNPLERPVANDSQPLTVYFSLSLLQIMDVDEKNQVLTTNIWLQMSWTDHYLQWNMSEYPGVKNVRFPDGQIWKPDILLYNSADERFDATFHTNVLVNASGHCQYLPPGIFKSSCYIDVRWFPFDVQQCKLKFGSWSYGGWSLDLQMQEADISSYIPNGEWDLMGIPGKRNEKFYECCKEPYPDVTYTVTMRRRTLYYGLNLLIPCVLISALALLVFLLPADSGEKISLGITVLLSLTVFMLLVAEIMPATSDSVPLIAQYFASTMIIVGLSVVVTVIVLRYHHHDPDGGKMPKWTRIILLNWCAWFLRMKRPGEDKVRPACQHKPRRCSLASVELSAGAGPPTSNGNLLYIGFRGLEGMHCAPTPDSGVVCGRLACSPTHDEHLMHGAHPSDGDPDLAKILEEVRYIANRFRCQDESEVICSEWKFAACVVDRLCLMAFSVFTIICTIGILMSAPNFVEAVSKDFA

With `CC[C@H](C)[C@H]1NC(=O)[C@H](CCCNC(=N)N)NC(=O)[C@H](CCCNC(=N)N)NC(=O)[C@@H](NC(=O)[C@H](Cc2ccc(O)cc2)NC(=O)[C@H](CCCNC(=N)N)NC(=O)[C@H](CCCNC(=N)N)NC(=O)[C@H](CCCNC(=N)N)NC(=O)[C@H](CCCNC(=N)N)NC(=O)[C@H](CC(=O)O)NC(=O)[C@H](Cc2ccc(O)cc2)NC(=O)[C@@H]2CCCN2C(=O)[C@H](CO)NC(=O)[C@H](CCCNC(=N)N)NC(=O)[C@@H]2CSSC[C@H](NC(=O)[C@@H](N)[C@@H](C)O)C(=O)N[C@@H](C)C(=O)N[C@@H](CO)C(=O)N[C@@H](CO)C(=O)NCC(=O)N[C@@H](CCCNC(=N)N)C(=O)N[C@@H](Cc3ccc(O)cc3)C(=O)N2)CSSC[C@@H](C(=O)N[C@H](C(=O)O)C(C)C)NC(=O)[C@H](C)NC(=O)[C@H](CC(=O)O)NC(=O)[C@H]([C@@H](C)O)NC1=O`, the figures for the IC50 in experiment [1] and in experiment [2] were 74 nM and 1130 nM, respectively.
As to `CC[C@H](C)[C@@H]1NC(=O)[C@H](CCCNC(=N)N)NC(=O)[C@H](CCCNC(=N)N)NC(=O)[C@@H](NC(=O)[C@H](Cc2ccc(O)cc2)NC(=O)[C@H](C)NC(=O)[C@H](C)NC(=O)[C@H](C)NC(=O)[C@H](C)NC(=O)[C@H](CC(=O)O)NC(=O)[C@H](Cc2ccc(O)cc2)NC(=O)[C@@H]2CCCN2C(=O)[C@H](CO)NC(=O)[C@H](CCCNC(=N)N)NC(=O)[C@@H]2CSSC[C@H](NC(=O)[C@@H](N)[C@@H](C)O)C(=O)N[C@@H](CCCNC(=N)N)C(=O)N[C@@H](CO)C(=O)N[C@@H](CCCNC(=N)N)C(=O)NCC(=O)N[C@@H](CCCNC(=N)N)C(=O)N[C@@H](Cc3ccc(O)cc3)C(=O)N2)CSSC[C@@H](C(=O)N[C@H](C(=O)O)C(C)C)NC(=O)[C@H](C)NC(=O)[C@H](CC(=O)O)NC(=O)[C@H]([C@@H](C)O)NC1=O` (HELM PEPTIDE1{T.C.R.S.R.G.R.Y.C.R.S.P.Y.D.A.A.A.A.Y.C.R.R.I.T.D.A.C.V}$PEPTIDE1,PEPTIDE1,2:R3-9:R3|PEPTIDE1,PEPTIDE1,20:R3-27:R3$$$V2.0), in experiment [3], the result was inactive. Further, the IC50 in experiment [1] is above 10000 nM.
Taken in the same sequence, the figures for `CC[C@H](C)[C@@H]1NC(=O)[C@H](CCCNC(=N)N)NC(=O)[C@H](CCCNC(=N)N)NC(=O)[C@@H](NC(=O)[C@H](Cc2ccc(O)cc2)NC(=O)[C@H](CCCNC(=N)N)NC(=O)[C@H](CCCNC(=N)N)NC(=O)[C@H](CCCNC(=N)N)NC(=O)[C@H](CCCNC(=N)N)NC(=O)[C@H](CC(=O)O)NC(=O)[C@H](Cc2ccc(O)cc2)NC(=O)[C@@H]2CCCN2C(=O)[C@H](CO)NC(=O)[C@H](C)NC(=O)[C@@H]2CSSC[C@H](NC(=O)[C@@H](N)[C@@H](C)O)C(=O)N[C@@H](C)C(=O)N[C@@H](CO)C(=O)N[C@@H](CO)C(=O)N[C@@H](C)C(=O)N[C@@H](CCCNC(=N)N)C(=O)N[C@@H](Cc3ccc(O)cc3)C(=O)N2)CSSC[C@@H](C(=O)N[C@H](C(=O)O)C(C)C)NC(=O)[C@H](C)NC(=O)[C@H](CC(=O)O)NC(=O)[C@H]([C@@H](C)O)NC1=O` (HELM PEPTIDE1{T.C.A.S.S.A.R.Y.C.A.S.P.Y.D.R.R.R.R.Y.C.R.R.I.T.D.A.C.V}$PEPTIDE1,PEPTIDE1,2:R3-9:R3|PEPTIDE1,PEPTIDE1,20:R3-27:R3$$$V2.0) were “inactive” and above 10000 nM.
On to `CC[C@H](C)[C@@H]1NC(=O)[C@H](C)NC(=O)[C@H](C)NC(=O)[C@@H](NC(=O)[C@H](Cc2ccc(O)cc2)NC(=O)[C@H](C)NC(=O)[C@H](C)NC(=O)[C@H](C)NC(=O)[C@H](C)NC(=O)[C@H](CC(=O)O)NC(=O)[C@H](Cc2ccc(O)cc2)NC(=O)[C@@H]2CCCN2C(=O)[C@H](CO)NC(=O)[C@H](C)NC(=O)[C@@H]2CSSC[C@H](NC(=O)[C@@H](N)[C@@H](C)O)C(=O)N[C@@H](C)C(=O)N[C@@H](CO)C(=O)N[C@@H](CO)C(=O)NCC(=O)N[C@@H](C)C(=O)N[C@@H](Cc3ccc(O)cc3)C(=O)N2)CSSC[C@@H](C(=O)N[C@H](C(=O)O)C(C)C)NC(=O)[C@H](C)NC(=O)[C@H](CC(=O)O)NC(=O)[C@H]([C@@H](C)O)NC1=O` (HELM PEPTIDE1{T.C.A.S.S.G.A.Y.C.A.S.P.Y.D.A.A.A.A.Y.C.A.A.I.T.D.A.C.V}$PEPTIDE1,PEPTIDE1,2:R3-9:R3|PEPTIDE1,PEPTIDE1,20:R3-27:R3$$$V2.0), for which the result in experiment [3] was inactive. The IC50 in experiment [1] is above 10000 nM.
As to `CC[C@H](C)[C@@H]1NC(=O)[C@H](CCCNC(=N)N)NC(=O)[C@H](CCCNC(=N)N)NC(=O)[C@@H]2CSSC[C@H](NC(=O)[C@H](Cc3ccc(O)cc3)NC(=O)[C@H](CCCNC(=N)N)NC(=O)CNC(=O)[C@H](CO)NC(=O)[C@H](CO)NC(=O)[C@H](C)NC(=O)[C@@H](NC(=O)[C@@H](N)[C@@H](C)O)CSSC[C@@H](C(=O)N[C@H](C(=O)O)C(C)C)NC(=O)[C@H](C)NC(=O)[C@H](CC(=O)O)NC(=O)[C@H]([C@@H](C)O)NC1=O)C(=O)N[C@@H](CCCNC(=N)N)C(=O)N[C@@H](CO)C(=O)N1CCC[C@H]1C(=O)N[C@@H](Cc1ccc(O)cc1)C(=O)N[C@@H](CC(=O)O)C(=O)N[C@@H](CCCNC(=N)N)C(=O)N[C@@H](CCCNC(=N)N)C(=O)N[C@@H](CCCNC(=N)N)C(=O)N[C@@H](CCCNC(=N)N)C(=O)N[C@@H](Cc1ccc(O)cc1)C(=O)N2`, the IC50 turned out to be 37 nM in experiment [1] and 9050 nM in experiment [2].
Consider `CC[C@H](C)[C@@H]1NC(=O)[C@H](CCCNC(=N)N)NC(=O)[C@H](CCCNC(=N)N)NC(=O)[C@@H](NC(=O)[C@H](Cc2ccc(O)cc2)NC(=O)[C@H](CCCNC(=N)N)NC(=O)[C@H](CCCNC(=N)N)NC(=O)[C@H](CCCNC(=N)N)NC(=O)[C@H](CCCNC(=N)N)NC(=O)[C@H](CC(=O)O)NC(=O)[C@H](Cc2ccc(O)cc2)NC(=O)[C@@H]2CCCN2C(=O)[C@H](CO)NC(=O)[C@H](C)NC(=O)[C@@H]2CSSC[C@H](NC(=O)[C@@H](N)[C@@H](C)O)C(=O)N[C@@H](CCCNC(=N)N)C(=O)N[C@@H](CO)C(=O)N[C@@H](CO)C(=O)NCC(=O)N[C@@H](C)C(=O)N[C@@H](Cc3ccc(O)cc3)C(=O)N2)CSSC[C@@H](C(=O)N[C@H](C(=O)O)C(C)C)NC(=O)[C@H](C)NC(=O)[C@H](CC(=O)O)NC(=O)[C@H]([C@@H](C)O)NC1=O` (HELM PEPTIDE1{T.C.R.S.S.G.A.Y.C.A.S.P.Y.D.R.R.R.R.Y.C.R.R.I.T.D.A.C.V}$PEPTIDE1,PEPTIDE1,2:R3-9:R3|PEPTIDE1,PEPTIDE1,20:R3-27:R3$$$V2.0), for which, in experiment [1], the IC50 was 440 nM.
